Test results as given in patent US10787462B2, “Heterocyclic compound” (TAKEDA PHARMACEUTICAL COMPANY LIMITED, priority 2015, dated 2020).

Target: T1, human RIPK1 (1-375) (Homo sapiens, UniProt Q13546)
T1 construct: human RIPK1 (1-375) gene; GST; made in house; host or cells: Sf-9 insect cells
T1 sequence (Q13546 1-375): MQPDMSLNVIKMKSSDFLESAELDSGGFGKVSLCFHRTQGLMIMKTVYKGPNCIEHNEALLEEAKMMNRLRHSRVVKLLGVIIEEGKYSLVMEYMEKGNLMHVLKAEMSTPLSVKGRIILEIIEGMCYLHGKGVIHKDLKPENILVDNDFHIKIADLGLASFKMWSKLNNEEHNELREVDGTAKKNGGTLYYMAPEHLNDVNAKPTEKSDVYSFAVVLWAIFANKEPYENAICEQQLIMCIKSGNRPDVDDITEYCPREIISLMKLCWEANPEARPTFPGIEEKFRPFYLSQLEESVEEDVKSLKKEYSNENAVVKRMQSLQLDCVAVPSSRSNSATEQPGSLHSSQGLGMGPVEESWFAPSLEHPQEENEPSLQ
Test: Human RIPK1 enzyme inhibitory effect (ADP-Glo Kinase Assay)
Assay type: biochemical
Settings: well without enzyme = 100% inhibition; for inhibition at 10 µM: read-out: human RIPK1 enzyme inhibitory effect at 10 μM (% inhibition), 10 μM test compound
How it was run: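 ADP-Glo luminescence read-out of ADP formed over 120 min at room temperature after adding 0.6 mM ATP solution (stock concentration). Compound and Sf-9-expressed, GST-purified RIPK1 (1-375) were first incubated together for 20 min in HEPES pH 7.5 buffer with MgCl2, Tween-20 and DTT.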

## CN1C(=O)C(N2CCc3c(nn(Cc4ccccc4)c3Cl)C2=O)CCc2nn(C)cc21 (stereo not drawn) [Example 92, 6-(2-benzyl-3-chloro-7-oxo-2,4,5,7-tetrahydro-6H-pyrazolo[3,4-c]pyridin-6-yl)-2,4-dimethyl-2,6,7,8-tetrahydropyrazolo[4,3-b]azepin-5(4H)-one]
  inhibition at 10 µM: 98%

## CN1C(=O)[C@@H](N2CCc3cn(Cc4ccccc4F)nc3C2=O)COc2ccc(C#N)cc21 [Example 77, (3S)-3-(2-(2-fluorobenzyl)-7-oxo-2,4,5,7-tetrahydro-6H-pyrazolo[3,4-c]pyridin-6-yl)-5-methyl-4-oxo-2,3,4,5-tetrahydro-1,5-benzoxazepine-7-carbonitrile]
  inhibition at 10 µM: 101%

## Cc1c2c(nn1Cc1ccccc1F)C(=O)N([C@H]1COc3cc(C#N)ccc3N(C)C1=O)CC2 [Example 112, (3S)-3-(2-(2-fluorobenzyl)-3-methyl-7-oxo-2,4,5,7-tetrahydro-6H-pyrazolo[3,4-c]pyridin-6-yl)-5-methyl-4-oxo-2,3,4,5-tetrahydro-1,5-benzoxazepine-8-carbonitrile]
  inhibition at 10 µM: 100%

## CN1C(=O)[C@@H](N2CCc3cn(Cc4ccc(C#N)cc4F)nc3C2=O)COc2ccccc21 [Example 162, 3-fluoro-4-((6-((3S)-5-methyl-4-oxo-2,3,4,5-tetrahydro-1,5-benzoxazepin-3-yl)-7-oxo-4,5,6,7-tetrahydro-2H-pyrazolo[3,4-c]pyridin-2-yl)methyl)benzonitrile]
  inhibition at 10 µM: 99%

## Cc1c2c(nn1Cc1ccccc1)C(=O)N([C@H]1COc3cc(C#N)ccc3N(C)C1=O)CC2 [Example 86]
  inhibition at 10 µM: 100%

## CN1C(=O)[C@@H](N2CCc3c(nn(Cc4ccccc4)c3Cl)C2=O)COc2cc(-c3ccn(C)n3)c(F)cc21 [Example 125, (3S)-3-(2-benzyl-3-chloro-7-oxo-2,4,5,7-tetrahydro-6H-pyrazolo[3,4-c]pyridin-6-yl)-7-fluoro-5-methyl-8-(1-methyl-1H-pyrazol-3-yl)-2,3-dihydro-1,5-benzoxazepin-4(5H)-one]
  inhibition at 10 µM: 101%

## CN1C(=O)C(N2CCc3c(nn(Cc4ccccc4F)c3Cl)C2=O)CCc2nn(C)cc21 (stereo not drawn) [Example 120, 6-(3-chloro-2-(2-fluorobenzyl)-7-oxo-2,4,5,7-tetrahydro-6H-pyrazolo[3,4-c]pyridin-6-yl)-2,4-dimethyl-2,6,7,8-tetrahydropyrazolo[4,3-b]azepin-5(4H)-one]
10 μM test compound, 10 µM
  human RIPK1 enzyme inhibitory effect at 10 μM (% inhibition): 95%

## CN1C(=O)[C@@H](N2CCc3cn(Cc4cccc(C#N)c4)nc3C2=O)COc2ccccc21 [Example 29, 3-((6-((3S)-5-methyl-4-oxo-2,3,4,5-tetrahydro-1,5-benzoxazepin-3-yl)-7-oxo-4,5,6,7-tetrahydro-2H-pyrazolo[3,4-c]pyridin-2-yl)methyl)benzonitrile]
  inhibition at 10 µM: 99%

## CN1C(=O)[C@@H](N2CCc3cn(CC4CCCC4)nc3C2=O)COc2ccccc21 [Example 37, (3S)-3-(2-(cyclopentylmethyl)-7-oxo-2,4,5,7-tetrahydro-6H-pyrazolo[3,4-c]pyridin-yl)-5-methyl-2,3-dihydro-1,5-benzoxazepin-4(5H)-one]
  inhibition at 10 µM: 100%

## Cc1c2c(nn1Cc1ccccc1)C(=O)N([C@H]1COc3cc(Br)ccc3N(C)C1=O)CC2 [Example 84]
  inhibition at 10 µM: 101%

## CN1C(=O)[C@@H](N2CCc3c(nn(Cc4ccccc4)c3Cl)C2=O)COc2cc(-c3ncco3)ccc21 [Example 139, (3S)-3-(2-benzyl-3-chloro-7-oxo-2,4,5,7-tetrahydro-6H-pyrazolo[3,4-c]pyridin-6-yl)-5-methyl-8-(1,3-oxazol-2-yl)-2,3-dihydro-1,5-benzoxazepin-4(5H)-one]
  inhibition at 10 µM: 100%

## CN1C(=O)[C@@H](N2CCc3cn(Cc4ccc(S(C)(=O)=O)cc4)nc3C2=O)COc2ccccc21 [Example 164, (3S)-5-methyl-3-(2-(4-(methylsulfonyl)benzyl)-7-oxo-2,4,5,7-tetrahydro-6H-pyrazolo[3,4-c]pyridin-6-yl)-2,3-dihydro-1,5-benzoxazepin-4(5H)-one]
  inhibition at 10 µM: 98%
